Assays:
[1] = molecular target: Vascular endothelial growth factor receptor 1 (Homo sapiens, UniProt P17948); type: cell-based; conditions: huvec; further: in other assays of this panel Not Active means under 50% inhibition at 10 µM
[2] = molecular target: T1, Muscarinic acetylcholine receptor M5 (Homo sapiens, UniProt P08912); type: cell membranes, CHO-K1, Membrane; conditions: cho-k1; further: in other assays of this panel Not Active means under 50% inhibition at 10 µM
T1 sequence (P08912 whole entry): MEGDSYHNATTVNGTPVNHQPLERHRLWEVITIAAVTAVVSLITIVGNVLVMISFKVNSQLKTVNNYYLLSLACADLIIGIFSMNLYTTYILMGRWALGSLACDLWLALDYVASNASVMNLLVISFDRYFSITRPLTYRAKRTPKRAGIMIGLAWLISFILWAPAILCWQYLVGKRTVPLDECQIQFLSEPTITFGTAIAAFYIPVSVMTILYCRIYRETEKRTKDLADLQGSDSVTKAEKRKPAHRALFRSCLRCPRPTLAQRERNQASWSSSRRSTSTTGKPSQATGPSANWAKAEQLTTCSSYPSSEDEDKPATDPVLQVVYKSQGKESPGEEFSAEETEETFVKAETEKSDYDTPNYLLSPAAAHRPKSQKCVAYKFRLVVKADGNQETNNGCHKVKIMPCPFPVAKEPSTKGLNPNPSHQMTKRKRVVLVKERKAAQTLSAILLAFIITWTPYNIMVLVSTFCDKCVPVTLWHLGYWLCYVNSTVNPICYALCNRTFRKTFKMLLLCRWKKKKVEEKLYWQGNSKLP

Nitric oxide synthase 1 = Nitric oxide synthase 1 (Rattus norvegicus, UniProt P29476); type: tissue-based, Cerebellum; further: in other assays of this panel Not Active means under 50% inhibition at 10 µM
[3] = molecular target: T2, Nitric oxide synthase, inducible (Mus musculus, UniProt P29477); design: species or system Escherichia coli;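 further: inhibition of iNOS enzyme activity measured with L-arginine as substrate; in other assays of this panel Not Active means under 50% inhibition at 10 µM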
T2 sequence (P29477 whole entry): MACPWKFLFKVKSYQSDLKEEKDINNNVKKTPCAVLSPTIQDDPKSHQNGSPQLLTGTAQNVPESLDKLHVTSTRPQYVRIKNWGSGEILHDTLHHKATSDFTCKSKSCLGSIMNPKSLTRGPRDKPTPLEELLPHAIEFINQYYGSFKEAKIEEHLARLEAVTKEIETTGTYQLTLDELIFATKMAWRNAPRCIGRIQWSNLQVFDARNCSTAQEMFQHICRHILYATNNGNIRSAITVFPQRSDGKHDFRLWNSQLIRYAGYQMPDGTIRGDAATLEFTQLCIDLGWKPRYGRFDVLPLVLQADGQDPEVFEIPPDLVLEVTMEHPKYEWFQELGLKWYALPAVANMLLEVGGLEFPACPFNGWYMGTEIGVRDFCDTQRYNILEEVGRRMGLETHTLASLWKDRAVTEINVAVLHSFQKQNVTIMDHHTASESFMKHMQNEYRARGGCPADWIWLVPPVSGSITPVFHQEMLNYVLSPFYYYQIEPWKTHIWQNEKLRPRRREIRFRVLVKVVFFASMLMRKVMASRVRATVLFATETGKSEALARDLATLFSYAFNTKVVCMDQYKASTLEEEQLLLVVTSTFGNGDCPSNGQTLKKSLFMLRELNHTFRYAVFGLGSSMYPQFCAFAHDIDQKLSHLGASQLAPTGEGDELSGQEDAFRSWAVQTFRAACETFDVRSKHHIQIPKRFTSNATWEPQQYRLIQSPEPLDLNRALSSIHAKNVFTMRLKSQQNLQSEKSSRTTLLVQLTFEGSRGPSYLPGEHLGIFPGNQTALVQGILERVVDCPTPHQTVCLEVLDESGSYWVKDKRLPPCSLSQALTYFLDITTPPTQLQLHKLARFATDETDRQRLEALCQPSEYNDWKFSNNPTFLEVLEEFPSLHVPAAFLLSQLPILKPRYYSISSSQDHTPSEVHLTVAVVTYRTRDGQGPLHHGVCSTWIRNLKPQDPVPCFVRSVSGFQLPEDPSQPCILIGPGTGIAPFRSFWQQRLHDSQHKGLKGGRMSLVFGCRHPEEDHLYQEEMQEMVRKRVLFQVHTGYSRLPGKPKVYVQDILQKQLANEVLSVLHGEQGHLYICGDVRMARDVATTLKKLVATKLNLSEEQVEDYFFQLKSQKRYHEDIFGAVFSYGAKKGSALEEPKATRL

Caspase-1 = molecular target: T3, Caspase-1 (Homo sapiens, UniProt P29466); design: species or system Escherichia coli
T3 sequence (P29466 whole entry): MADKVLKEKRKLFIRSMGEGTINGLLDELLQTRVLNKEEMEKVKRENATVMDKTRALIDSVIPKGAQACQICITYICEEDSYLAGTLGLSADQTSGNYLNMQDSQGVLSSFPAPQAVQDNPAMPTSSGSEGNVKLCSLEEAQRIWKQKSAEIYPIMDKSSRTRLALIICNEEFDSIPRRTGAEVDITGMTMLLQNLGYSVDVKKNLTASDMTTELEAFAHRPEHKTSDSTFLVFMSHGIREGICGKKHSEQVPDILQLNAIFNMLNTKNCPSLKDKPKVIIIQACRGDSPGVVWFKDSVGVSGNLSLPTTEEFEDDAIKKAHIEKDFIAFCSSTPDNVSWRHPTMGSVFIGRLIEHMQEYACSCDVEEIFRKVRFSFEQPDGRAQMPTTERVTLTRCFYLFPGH

[4] = molecular target: Epidermal growth factor receptor (Homo sapiens, UniProt P00533); experiment: DRUGMATRIX: Protein Tyrosine Kinase, EGF Receptor enzyme inhibition (substrate: Poly(Glu:Tyr)); type: cell-based, Insect cells; conditions: insect cells; Not Active = under 50% inhibition at 10 µM
Acetylcholinesterase = Acetylcholinesterase (Homo sapiens, UniProt P22303); experiment: DRUGMATRIX: Acetylcholinesterase enzyme inhibition (substrate: acetylthiocholine); type: cell-based, HEK293; conditions: hek293; Not Active = under 50% inhibition at 10 µM
Chain of Acetylcholinesterase (P22303 whole entry): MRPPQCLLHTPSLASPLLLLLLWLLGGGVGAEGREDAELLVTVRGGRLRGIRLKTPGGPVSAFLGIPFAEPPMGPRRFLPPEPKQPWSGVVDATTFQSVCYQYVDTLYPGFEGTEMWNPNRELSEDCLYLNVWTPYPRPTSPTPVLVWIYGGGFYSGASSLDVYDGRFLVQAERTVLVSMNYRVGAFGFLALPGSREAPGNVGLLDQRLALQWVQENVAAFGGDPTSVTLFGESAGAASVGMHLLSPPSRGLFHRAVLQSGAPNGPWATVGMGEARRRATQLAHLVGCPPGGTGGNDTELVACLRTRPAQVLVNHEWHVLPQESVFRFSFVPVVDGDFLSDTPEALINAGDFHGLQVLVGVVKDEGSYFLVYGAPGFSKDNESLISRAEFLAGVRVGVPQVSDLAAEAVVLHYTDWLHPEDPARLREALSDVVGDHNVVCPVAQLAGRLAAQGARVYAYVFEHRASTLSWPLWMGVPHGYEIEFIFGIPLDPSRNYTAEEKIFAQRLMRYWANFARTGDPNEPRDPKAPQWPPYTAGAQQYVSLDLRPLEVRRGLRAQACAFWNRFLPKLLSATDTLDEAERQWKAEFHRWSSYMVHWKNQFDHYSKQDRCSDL

Chain of Vascular endothelial growth factor receptor 1 (P17948 whole entry): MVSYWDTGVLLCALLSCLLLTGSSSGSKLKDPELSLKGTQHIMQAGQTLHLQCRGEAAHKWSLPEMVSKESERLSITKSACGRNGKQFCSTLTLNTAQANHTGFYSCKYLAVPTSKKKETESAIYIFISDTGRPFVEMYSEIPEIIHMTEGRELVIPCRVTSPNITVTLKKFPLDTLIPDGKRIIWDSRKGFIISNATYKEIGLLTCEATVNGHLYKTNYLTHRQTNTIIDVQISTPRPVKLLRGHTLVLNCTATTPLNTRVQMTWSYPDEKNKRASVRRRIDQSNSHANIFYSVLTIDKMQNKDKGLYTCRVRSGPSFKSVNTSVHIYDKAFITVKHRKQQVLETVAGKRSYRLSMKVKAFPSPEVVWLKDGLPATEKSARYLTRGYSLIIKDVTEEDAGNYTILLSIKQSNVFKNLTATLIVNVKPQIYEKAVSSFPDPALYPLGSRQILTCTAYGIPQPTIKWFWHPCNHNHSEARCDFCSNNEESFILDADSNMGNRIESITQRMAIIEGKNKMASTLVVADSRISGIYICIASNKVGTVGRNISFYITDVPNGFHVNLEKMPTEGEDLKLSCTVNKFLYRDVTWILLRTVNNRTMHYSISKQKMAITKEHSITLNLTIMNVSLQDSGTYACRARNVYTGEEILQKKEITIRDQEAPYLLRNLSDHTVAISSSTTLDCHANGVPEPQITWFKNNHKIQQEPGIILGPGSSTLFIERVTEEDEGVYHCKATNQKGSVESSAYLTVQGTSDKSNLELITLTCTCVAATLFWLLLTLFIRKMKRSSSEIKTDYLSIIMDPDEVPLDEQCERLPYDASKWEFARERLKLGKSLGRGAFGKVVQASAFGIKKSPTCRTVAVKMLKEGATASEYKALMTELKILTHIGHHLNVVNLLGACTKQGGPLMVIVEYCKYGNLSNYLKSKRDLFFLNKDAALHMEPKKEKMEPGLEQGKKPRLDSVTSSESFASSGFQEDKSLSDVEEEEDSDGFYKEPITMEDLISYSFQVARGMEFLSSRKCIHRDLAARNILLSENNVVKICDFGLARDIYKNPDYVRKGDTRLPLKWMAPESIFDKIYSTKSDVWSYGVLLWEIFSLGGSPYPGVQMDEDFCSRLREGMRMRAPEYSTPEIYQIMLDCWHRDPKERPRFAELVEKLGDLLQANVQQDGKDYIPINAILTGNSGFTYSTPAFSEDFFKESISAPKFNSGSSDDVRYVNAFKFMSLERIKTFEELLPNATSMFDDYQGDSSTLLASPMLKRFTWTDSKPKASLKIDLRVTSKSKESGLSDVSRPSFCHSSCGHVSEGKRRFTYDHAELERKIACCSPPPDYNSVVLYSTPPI
Chain of Epidermal growth factor receptor (P00533 whole entry): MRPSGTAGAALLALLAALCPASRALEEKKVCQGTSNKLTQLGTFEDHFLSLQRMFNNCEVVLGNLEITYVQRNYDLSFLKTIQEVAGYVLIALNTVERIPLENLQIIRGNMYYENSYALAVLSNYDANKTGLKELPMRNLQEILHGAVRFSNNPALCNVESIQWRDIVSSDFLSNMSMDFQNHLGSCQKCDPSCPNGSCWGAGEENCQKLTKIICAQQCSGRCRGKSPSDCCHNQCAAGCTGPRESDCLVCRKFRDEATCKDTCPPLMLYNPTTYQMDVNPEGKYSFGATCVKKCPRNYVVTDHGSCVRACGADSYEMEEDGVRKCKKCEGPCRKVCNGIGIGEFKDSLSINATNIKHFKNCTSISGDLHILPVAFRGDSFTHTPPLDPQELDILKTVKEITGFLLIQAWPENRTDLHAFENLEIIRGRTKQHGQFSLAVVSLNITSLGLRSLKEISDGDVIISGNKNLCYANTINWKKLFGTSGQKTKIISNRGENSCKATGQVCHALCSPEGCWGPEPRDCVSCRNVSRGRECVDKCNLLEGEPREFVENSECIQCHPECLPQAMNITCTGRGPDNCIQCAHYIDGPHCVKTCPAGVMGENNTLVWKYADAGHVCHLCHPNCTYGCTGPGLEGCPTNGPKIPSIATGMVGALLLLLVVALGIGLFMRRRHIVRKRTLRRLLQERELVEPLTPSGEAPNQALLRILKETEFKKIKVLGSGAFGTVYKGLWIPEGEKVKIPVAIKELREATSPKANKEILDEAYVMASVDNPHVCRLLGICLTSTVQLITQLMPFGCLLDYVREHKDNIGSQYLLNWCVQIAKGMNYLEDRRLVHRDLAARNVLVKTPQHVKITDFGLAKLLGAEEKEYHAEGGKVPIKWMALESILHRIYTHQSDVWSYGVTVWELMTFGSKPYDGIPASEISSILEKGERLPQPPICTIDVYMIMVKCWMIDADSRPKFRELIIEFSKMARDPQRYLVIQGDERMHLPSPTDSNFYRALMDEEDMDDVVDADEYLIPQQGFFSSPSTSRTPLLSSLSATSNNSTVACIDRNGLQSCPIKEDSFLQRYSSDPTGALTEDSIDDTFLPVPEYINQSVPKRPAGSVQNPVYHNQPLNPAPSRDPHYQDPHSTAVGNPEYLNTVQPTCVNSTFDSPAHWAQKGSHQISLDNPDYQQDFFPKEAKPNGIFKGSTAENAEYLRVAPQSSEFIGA
Chain of Nitric oxide synthase 1 (P29476 whole entry): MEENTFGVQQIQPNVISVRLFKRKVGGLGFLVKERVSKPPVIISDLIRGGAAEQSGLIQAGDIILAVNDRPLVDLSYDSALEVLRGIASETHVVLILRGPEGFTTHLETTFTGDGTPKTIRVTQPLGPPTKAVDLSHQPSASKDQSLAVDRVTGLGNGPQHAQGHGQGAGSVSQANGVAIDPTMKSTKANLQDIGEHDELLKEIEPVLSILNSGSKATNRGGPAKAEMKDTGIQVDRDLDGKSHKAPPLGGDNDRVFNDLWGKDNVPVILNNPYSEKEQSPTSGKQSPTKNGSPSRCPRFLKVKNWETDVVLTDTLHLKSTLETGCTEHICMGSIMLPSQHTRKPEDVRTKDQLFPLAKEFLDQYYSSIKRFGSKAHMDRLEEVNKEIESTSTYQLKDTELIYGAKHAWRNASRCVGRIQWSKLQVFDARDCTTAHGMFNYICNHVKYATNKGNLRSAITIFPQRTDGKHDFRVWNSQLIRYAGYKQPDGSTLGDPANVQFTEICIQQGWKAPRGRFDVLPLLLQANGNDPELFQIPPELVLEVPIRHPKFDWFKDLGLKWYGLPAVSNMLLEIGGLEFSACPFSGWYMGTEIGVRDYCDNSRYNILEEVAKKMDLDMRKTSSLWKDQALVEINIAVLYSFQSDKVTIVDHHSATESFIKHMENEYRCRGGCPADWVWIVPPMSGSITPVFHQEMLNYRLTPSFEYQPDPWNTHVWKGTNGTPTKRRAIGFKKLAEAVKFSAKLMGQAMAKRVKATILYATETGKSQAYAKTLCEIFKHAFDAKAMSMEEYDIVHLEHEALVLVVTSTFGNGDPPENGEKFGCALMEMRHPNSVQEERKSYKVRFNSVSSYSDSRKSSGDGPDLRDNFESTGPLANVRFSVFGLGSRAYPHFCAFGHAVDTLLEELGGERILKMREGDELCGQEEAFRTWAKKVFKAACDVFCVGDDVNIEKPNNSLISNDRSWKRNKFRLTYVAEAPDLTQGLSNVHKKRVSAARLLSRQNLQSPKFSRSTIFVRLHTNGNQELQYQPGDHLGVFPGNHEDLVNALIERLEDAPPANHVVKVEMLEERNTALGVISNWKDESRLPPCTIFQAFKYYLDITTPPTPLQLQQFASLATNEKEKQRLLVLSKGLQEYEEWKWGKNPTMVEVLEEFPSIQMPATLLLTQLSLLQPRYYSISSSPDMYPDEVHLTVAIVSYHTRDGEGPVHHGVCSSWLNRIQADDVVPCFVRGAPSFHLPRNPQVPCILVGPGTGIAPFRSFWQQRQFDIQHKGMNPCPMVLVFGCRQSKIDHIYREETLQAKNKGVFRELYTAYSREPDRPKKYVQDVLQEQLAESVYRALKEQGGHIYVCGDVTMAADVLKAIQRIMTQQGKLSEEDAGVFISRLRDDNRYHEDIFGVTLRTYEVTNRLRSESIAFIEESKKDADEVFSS

O=C(N[C@H](CO)[C@H](O)c1ccc([N+](=O)[O-])cc1)C(Cl)Cl [CHLORAMPHENICOL]
IC50 [1]: Not Active
IC50 [2]: Not Active
IC50 (Nitric oxide synthase 1): Not Active
IC50 [3]: Not Active
IC50 (Caspase-1): Not Active
IC50 [4]: Not Active
IC50 (Acetylcholinesterase): Not Active

ClC(Cl)Cl [CHLOROFORM]
IC50 [1]: Not Active
IC50 [2]: Not Active
IC50 (Nitric oxide synthase 1): Not Active
IC50 [3]: Not Active
IC50 (Caspase-1): Not Active
IC50 [4]: Not Active
IC50 (Acetylcholinesterase): Not Active

C=C1CC[C@H](O)C/C1=C/C=C1\CCC[C@]2(C)[C@@H]([C@H](C)CCCC(C)C)CC[C@@H]12 [CHOLECALCIFEROL]
IC50 [1]: Not Active
IC50 [2]: Not Active
IC50 (Nitric oxide synthase 1): Not Active
IC50 [3]: Not Active
IC50 (Caspase-1): Not Active
IC50 [4]: Not Active
IC50 (Acetylcholinesterase): Not Active

C[N+](C)(C)CCO.[Cl-] [CHOLINE CHLORIDE]
IC50 [1]: Not Active
IC50 [2]: Not Active
IC50 (Nitric oxide synthase 1): Not Active
IC50 [3]: Not Active
IC50 (Caspase-1): Not Active
IC50 [4]: Not Active
IC50 (Acetylcholinesterase): Not Active

CCOC(=O)C(C)(C)Oc1ccc(Cl)cc1 [CLOFIBRATE]
IC50 [1]: Not Active
IC50 [2]: Not Active
IC50 (Nitric oxide synthase 1): Not Active
IC50 [3]: Not Active
IC50 (Caspase-1): Not Active
IC50 [4]: Not Active
IC50 (Acetylcholinesterase): Not Active

CC(=O)OCC(=O)[C@@]1(O)CC[C@H]2[C@@H]3CCC4=CC(=O)CC[C@]4(C)[C@H]3C(=O)C[C@@]21C [CORTISONE ACETATE]
IC50 [1]: Not Active
IC50 [2]: Not Active
IC50 (Nitric oxide synthase 1): Not Active
IC50 [3]: Not Active
IC50 (Caspase-1): Not Active
IC50 [4]: Not Active
IC50 (Acetylcholinesterase): Not Active

O=c1ccc2ccccc2o1 [COUMARIN]
IC50 [1]: Not Active
IC50 [2]: Not Active
IC50 (Nitric oxide synthase 1): Not Active
IC50 [3]: Not Active
IC50 (Caspase-1): Not Active
IC50 [4]: Not Active
IC50 (Acetylcholinesterase): Not Active

C[C@@H]1C[C@@H]([C@H](O)CC2CC(=O)NC(=O)C2)C(=O)[C@@H](C)C1 [CYCLOHEXIMIDE]
IC50 [1]: Not Active
IC50 [2]: Not Active
IC50 (Nitric oxide synthase 1): Not Active
IC50 [3]: Not Active
IC50 (Caspase-1): Not Active
IC50 [4]: Not Active
IC50 (Acetylcholinesterase): Not Active

C/C=C/C[C@@H](C)[C@@H](O)[C@H]1C(=O)N[C@@H](CC)C(=O)N(C)CC(=O)N(C)[C@@H](CC(C)C)C(=O)N[C@@H](C(C)C)C(=O)N(C)[C@@H](CC(C)C)C(=O)N[C@@H](C)C(=O)N[C@H](C)C(=O)N(C)[C@@H](CC(C)C)C(=O)N(C)[C@@H](CC(C)C)C(=O)N(C)[C@@H](C(C)C)C(=O)N1C [CYCLOSPORINE]
IC50 [1]: Not Active
IC50 [2]: Not Active
IC50 (Nitric oxide synthase 1): Not Active
IC50 [3]: Not Active
IC50 (Caspase-1): Not Active
IC50 [4]: Not Active
IC50 (Acetylcholinesterase): Not Active

CN(C)/N=N/c1[nH]cnc1C(N)=O [DACARBAZINE]
IC50 [1]: Not Active
IC50 [2]: Not Active
IC50 (Nitric oxide synthase 1): Not Active
IC50 [3]: Not Active
IC50 (Caspase-1): Not Active
IC50 [4]: Not Active
IC50 (Acetylcholinesterase): Not Active

COc1ccc2c(c1)[C@]13CCCC[C@@H]1[C@H](C2)N(C)CC3 [DEXTROMETHORPHAN]
IC50 [1]: Not Active
IC50 [2]: Not Active
IC50 (Nitric oxide synthase 1): Not Active
IC50 [3]: Not Active
IC50 (Caspase-1): Not Active
IC50 [4]: Not Active
IC50 (Acetylcholinesterase): Not Active

CC(=O)Nc1c(I)c(NC(C)=O)c(I)c(C(=O)O)c1I [DIATRIZOIC ACID]
IC50 [1]: Not Active
IC50 [2]: Not Active
IC50 (Nitric oxide synthase 1): Not Active
IC50 [3]: Not Active
IC50 (Caspase-1): Not Active
IC50 [4]: Not Active
IC50 (Acetylcholinesterase): Not Active

COP(=O)(OC)OC=C(Cl)Cl [DICHLORVOS]
IC50 [1]: Not Active
IC50 [2]: Not Active
IC50 (Nitric oxide synthase 1): Not Active
IC50 [3]: Not Active
IC50 (Caspase-1): Not Active
IC50 [4]: Not Active
IC50 (Acetylcholinesterase): Not Active

O=C(O)Cc1ccccc1Nc1c(Cl)cccc1Cl [DICLOFENAC]
IC50 [1]: Not Active
IC50 [2]: Not Active
IC50 (Nitric oxide synthase 1): Not Active
IC50 [3]: Not Active
IC50 (Caspase-1): Not Active
IC50 [4]: Not Active
IC50 (Acetylcholinesterase): Not Active

C[C@H]1O[C@@H](O[C@H]2[C@@H](O)C[C@H](O[C@H]3[C@@H](O)C[C@H](O[C@H]4CC[C@@]5(C)[C@H](CC[C@@H]6[C@@H]5CC[C@]5(C)[C@@H](C7=CC(=O)OC7)CC[C@]65O)C4)O[C@@H]3C)O[C@@H]2C)C[C@H](O)[C@@H]1O [DIGITOXIN]
IC50 [1]: Not Active
IC50 [2]: Not Active
IC50 (Nitric oxide synthase 1): Not Active
IC50 [3]: Not Active
IC50 (Caspase-1): Not Active
IC50 [4]: Not Active
IC50 (Acetylcholinesterase): Not Active

CCN1CC(CCN2CCOCC2)C(c2ccccc2)(c2ccccc2)C1=O (centres undefined) [DOXAPRAM]
IC50 [1]: Not Active
IC50 [2]: Not Active
IC50 (Nitric oxide synthase 1): Not Active
IC50 [3]: Not Active
IC50 (Caspase-1): Not Active
IC50 [4]: Not Active
IC50 (Acetylcholinesterase): Not Active

Cn1c(=O)c2c(ncn2CC2OCCO2)n(C)c1=O [DOXOFYLLINE]
IC50 [1]: Not Active
IC50 [2]: Not Active
IC50 (Nitric oxide synthase 1): Not Active
IC50 [3]: Not Active
IC50 (Caspase-1): Not Active
IC50 [4]: Not Active
IC50 (Acetylcholinesterase): Not Active

COc1cccc2c1C(=O)c1c(O)c3c(c(O)c1C2=O)C[C@@](O)(C(=O)CO)C[C@@H]3O[C@H]1C[C@H](N)[C@H](O)[C@H](C)O1 [DOXORUBICIN]
IC50 [1]: Not Active
IC50 [2]: Not Active
IC50 (Nitric oxide synthase 1): Not Active
IC50 [3]: Not Active
IC50 (Caspase-1; read-out: IC50): 12.2 µM
IC50 [4]: Not Active
IC50 (Acetylcholinesterase): Not Active

COc1cccc2c1C(=O)c1c(O)c3c(c(O)c1C2=O)C[C@@](O)(C(=O)CO)C[C@@H]3O[C@H]1C[C@H](N)[C@@H](O)[C@H](C)O1 [EPIRUBICIN]
IC50 [1]: Not Active
IC50 [2]: Not Active
IC50 (Nitric oxide synthase 1): Not Active
IC50 [3]: Not Active
IC50 (Caspase-1): Not Active
IC50 [4]: Not Active
IC50 (Acetylcholinesterase): Not Active

C[C@]12CC[C@@H]3c4ccc(OC(=O)c5ccccc5)cc4CC[C@H]3[C@@H]1CC[C@@H]2O [ESTRADIOL BENZOATE]
IC50 [1]: Not Active
IC50 [2]: Not Active
IC50 (Nitric oxide synthase 1): Not Active
IC50 [3]: Not Active
IC50 (Caspase-1): Not Active
IC50 [4]: Not Active
IC50 (Acetylcholinesterase): Not Active

C[C@]12CC[C@@H]3c4ccc(O)cc4CC[C@H]3[C@@H]1CC[C@@H]2O [ESTRADIOL]
IC50 [1]: Not Active
IC50 [2]: Not Active
IC50 (Nitric oxide synthase 1): Not Active
IC50 [3]: Not Active
IC50 (Caspase-1): Not Active
IC50 [4]: Not Active
IC50 (Acetylcholinesterase): Not Active

CC[C@@H](CO)NCCN[C@@H](CC)CO [ETHAMBUTOL]
IC50 [1]: Not Active
IC50 [2]: Not Active
IC50 (Nitric oxide synthase 1): Not Active
IC50 [3]: Not Active
IC50 (Caspase-1): Not Active
IC50 [4]: Not Active
IC50 (Acetylcholinesterase): Not Active
